We go through one compound from paper PMC4186449 (Pharmacology Research & Perspectives, 2014).

Each structure is given as a SMILES string.

The test concerns the target T1, LdTOPII (Leishmania donovani, UniProt Q9XZN0).
T1 sequence (Q9XZN0 1-1236): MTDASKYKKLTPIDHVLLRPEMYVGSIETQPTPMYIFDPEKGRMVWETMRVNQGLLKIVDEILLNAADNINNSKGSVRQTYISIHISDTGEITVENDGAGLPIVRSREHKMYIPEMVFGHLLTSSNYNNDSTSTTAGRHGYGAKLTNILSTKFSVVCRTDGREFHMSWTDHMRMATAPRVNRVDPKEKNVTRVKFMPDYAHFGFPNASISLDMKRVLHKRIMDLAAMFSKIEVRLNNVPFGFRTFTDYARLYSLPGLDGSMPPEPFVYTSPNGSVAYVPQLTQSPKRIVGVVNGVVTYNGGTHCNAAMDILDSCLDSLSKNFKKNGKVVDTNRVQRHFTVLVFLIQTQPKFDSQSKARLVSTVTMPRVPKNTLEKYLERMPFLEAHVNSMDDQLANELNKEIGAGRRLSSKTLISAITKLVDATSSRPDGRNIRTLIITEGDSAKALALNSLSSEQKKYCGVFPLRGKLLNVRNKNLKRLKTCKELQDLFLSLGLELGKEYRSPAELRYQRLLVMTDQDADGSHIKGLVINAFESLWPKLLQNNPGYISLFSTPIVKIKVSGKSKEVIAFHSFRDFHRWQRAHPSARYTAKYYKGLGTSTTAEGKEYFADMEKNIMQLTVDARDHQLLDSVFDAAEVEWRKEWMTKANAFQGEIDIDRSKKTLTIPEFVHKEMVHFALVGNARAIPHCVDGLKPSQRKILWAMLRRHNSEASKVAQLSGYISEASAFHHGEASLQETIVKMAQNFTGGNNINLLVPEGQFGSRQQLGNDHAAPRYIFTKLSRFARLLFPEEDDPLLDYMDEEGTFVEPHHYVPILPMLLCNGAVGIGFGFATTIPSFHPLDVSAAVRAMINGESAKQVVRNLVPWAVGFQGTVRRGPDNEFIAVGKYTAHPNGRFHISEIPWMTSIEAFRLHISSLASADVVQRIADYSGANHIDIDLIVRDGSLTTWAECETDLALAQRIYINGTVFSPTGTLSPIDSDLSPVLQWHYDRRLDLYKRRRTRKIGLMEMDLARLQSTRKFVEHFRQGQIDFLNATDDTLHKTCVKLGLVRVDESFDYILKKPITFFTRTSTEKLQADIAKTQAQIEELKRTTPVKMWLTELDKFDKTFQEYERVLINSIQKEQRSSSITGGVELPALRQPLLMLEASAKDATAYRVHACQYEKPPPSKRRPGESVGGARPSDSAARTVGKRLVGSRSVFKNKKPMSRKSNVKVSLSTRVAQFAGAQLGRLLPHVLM
To be noted: 2 mmol/L ATP, 30°C.

For `Nc1ncnc2c1ncn2[C@@H]1O[C@H](COP(=O)(O)OP(=O)(O)OP(=O)(O)O)[C@@H](O)[C@H]1O` [ATP], the “pyruvate kinase/lactate dehydrogenase coupled ATPase assay” value is “JVPH3 and JVPH4 did not interfere with LdTOPII-mediated ATP hydrolysis”.
